Entries after “also recorded” stand apart in the source; their conditions may differ. Where two headings read alike, the source gives them in different places.
Tests used:
[1] = test system: primary murine microglia; assay: Immunostaining of primary microglia (Iba1+ area, DAPI+ nuclei) after CSF-1 stimulation; assay type: cell-based, mouse; conditions: Mus musculus, Microglia
Description: Primary mouse microglia were suspended at a concentration of 5×10^5 cells/mL and 100 μL of this cell suspension was added to the inner 60 wells of three 96-well plates. Microglia cells were allowed to rest overnight at 37° C., 5% CO2. […] Cells were then stimulated with 100 ng/mL recombinant mouse CSF-1 for 24 hours. After stimulation, the culture supernatant was removed from each well and aliquoted into two different 96-well plates for subsequent ELISA assays. Plates were fixed with 4% PFA for future immunocytochemistry analysis. Following the stimulation, cells were fixed with 4% PFA for 20 minutes at room temperature. Cells were then rinsed in PBS, washed 3×5 minutes in 0.2% PBT (0.2% Triton X-100 in PBS) and blocked with 10% donkey serum/0.2% PBT for 1 hour at room temperature. […] After staining, plates were imaged on the IN Cell Analyzer 2200 with 9 fields of view acquired per well. […] A one-way ANOVA was used to determine the statistical significance of differences between samples. […] Following a microglial stimulation, immunocytochemistry was completed with Iba1, Ki67, and DAPI to determine microglial morphology, proliferative state, and number. InCell imaging microsope and analysis software was used to quantify Iba1^+ area, and the number of DAPI^+ nuclei within the cultures.

[2] = test system: primary mouse microglia (wild type, SOD1); assay: CellTiter Glo 2.0 viability assay, wild-type and SOD1 primary microglia; assay type: cell-based; conditions: wild type and SOD1 cells
Description: (§1) The impact of a deuterated CSF-1R inhibitor of this disclosure on cytokine/chemokine production following CSF-1 or LPS stimulation in wild-type versus SOD1 mutant primary microglial cells was examined in the following experiments.
(§2) Methods Treatment and Stimulation of Primary Microglial Cells
(§3) Primary mouse microglia were suspended at a concentration of 5×10^5 cells/mL and 100 μL of this cell suspension was added to each well of a 96-well plate. Microglia cells were allowed to rest overnight at 37° C., 5% CO2. […] Cells were then stimulated with 100 ng/mL recombinant mouse M-CSF for 30 minutes or 10 ng/mL lipopolysaccharide for 24 hours. After stimulation, the culture supernatant was removed from each well and aliquoted into two different 96-well plates for subsequent ELISA assays.
Cell viability was determined using Promega's Cell Titer Glo Luminescent Cell Viability Assay. […] 100 μL was transferred from each well to a white plate and luminescence was read immediately on the FlexStation3 plate reader.
Primary murine microglia were plated at 50,000 cells per well and rested overnight. […] Cell viability was assessed after 24 hours utilizing Promega's Cell Titer Glo Assay Kit. Both CSF-1 and LPS stimulation induced a slight increase in the cell viability readout versus unstimulated cells (FIGS. 8A-8B and FIGS. 9A-9B).

[3] = test system: MCP-1 production in primary mouse microglia (wild type, SOD1); assay: MCP-1 ELISA, wild-type and SOD1 primary microglia, CSF-1 stimulation; assay type: cell-based; conditions: CSF-1 stimulation, 50, 100, 200 nM, wild type and SOD1 cells
Description: as §1, §2, §3
Culture supernatants were assayed with the Quantikine Mouse MCP-1 ELISA kit from R&D Systems (cat #SMJE00B). Samples were diluted 1:10 with Calibrator Diluent. Fifty microliters of Assay Diluent were first added to each well. Fifty microliters of Standards, Assay Control and diluted Sample were then added to the wells. The plate was mixed by gently tapping the frame, then sealed with an adhesive strip. The plate incubated for 2 hours at room temperature. […] After incubation, the acid stop solution was added to each well, and the plate was read on the ELISA plate reader at 450 nm.

[4] = test system: MCP-1 production in iCell microglia (human iPSC derived microglia); assay: MCP-1 ELISA, iCell human microglia, CSF1 stimulation; assay type: cell-based; conditions: 1.5625-200 nM, CSF1 100 ng/mL 24 hours
Description: iCell microglia (human iPSC derived microglia) were acquired from FujiFilm (cat #C1110, lot #105458). These cells were thawed and maintained in iCell Microglia Complete Media according the manufacture instructions. For this assay, iCell microglia were resuspended at a concentration of 5×10^5 cells/mL and 100 μL of this cell suspension was added to the inner 60 wells of a 96-well plate. iCell microglia were allowed to rest overnight at 37° C., 5% CO2. The following evening, the media was removed and replaced with Neurobasal Media (Gibco, cat #21103049) containing B27 supplement (Gibco, cat #17504044). Again, cells were allowed to rest overnight at 37° C., 5% CO2. […] Cells were then stimulated with 100 ng/mL recombinant human CSF1 for 24 hours. After stimulation, the culture supernatant was removed from each well and aliquoted into two different 96-well plates for subsequent ELISA assays.
Culture supernatants were assayed with the Quantikine Human MCP-1 ELISA kit (R&D Systems, cat #SCP00). […] After incubation, fifty microliters of the acid stop solution was added to each well, and the plate was read on the FlexStation3 Multi-Mode Microplate Reader (Molecular Devices, cat #Flex3) with SoftMax Pro Software at 450 nm.
iCell microglia (human iPSC derived microglia) were plated at 50,000 cells per well and rested overnight. […] Cell viability was assessed utilizing Promega's Cell Titer Glo Assay Kit. […]

## [2H]c1nc2cccnc2n1Cc1cc(OC)c2c(c1)O[C@@H](C)[C@H](c1ccc(OC)nc1)O2 [Compound 6, 3-(((2S,3S)-8-methoxy-2-(6-methoxypyridin-3-yl)-3-methyl-2,3-dihydrobenzo[b][1,4]dioxin-6-yl)methyl)-3H-imidazo[4,5-b]pyridine-2-d]
[1]; read-out: IC50 for DAPI (DAPI+ cell number)
  IC50: 248 nM
[1]; read-out: IC50 for Iba1 (Iba1+ area)
  IC50: 84.6 nM
[2]; CSF-1 stimulation, 50, 100, 200 nM
  cell viability: no toxic effect on microglia at the concentrations assessed; also recorded: slightly reduced the CSF-1-induced increase in cell viability
[2]; LPS stimulation, 50, 100, 200 nM
  cell viability: no deleterious effect on cell viability
[3]
  MCP-1 production: significantly reduced MCP-1 production in a concentration dependent manner
[4]
  MCP1 production: significantly reduced MCP1 production in a concentration dependent manner
